Measurements as given in patent US4015974A, “Amido phosphorothiolates” (priority 1972, dated 1977).
In brackets after ≈: the same amount, converted by molar mass.

How the values were obtained:
Format in all cases: in vivo
[1] = system: large crabgrass (Digitaria sanguinalis); assay: Pre-emergence application, herbicidal effect on large crabgrass (Table 1); set-up: key: 0: not damaged; 5: completely killed; conditions: 20 days after application, score 0-5
Summary of the method: (§1)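 Soil treatment after sowing, pre-emergence; wettable powder formulations diluted with water. Greenhouse, 20 d. Score 0 = no damage, 5 = complete kill.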

[2] = system: radish; assay: Pre-emergence application, herbicidal effect on radish (Table 1); set-up: key: 0: not damaged; 5: completely killed; conditions: 20 days after application, score 0-5
Summary of the method: as §1

[3] = system: nematode; assay: Effect on nematode (Table 7); set-up: tested at 500 ppm; conditions: 500 p.p.m., 24 hours
Procedure: 0.5 ml. of a nematode-containing aqueous solution separated from food according to Baermann's method was placed in a test tube with ground stopper containing 0.5 ml. of an aqueous dilute solution of each emulsifiable concentrates of the present compounds. The concentration of the active ingredient in the mixture was adjusted to 500 p.p.m. After 24 hours, the death and alive were observed microscopically to calculate the mortality.

[4] = system: rice; assay: Water application, phytotoxicity on rice (Table 2); set-up: key: 0: no effect; 1: very slightly affected; 2: slightly affected; 3: moderately affected; 4: considerably affected; 5: completely killed; conditions: 25 days, score 0-5
Summary of the method: (§2)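 Paddy-soil pots flooded to paddy conditions; rice transplanted at 3-leaf stage, barnyard grass sown, broad-leaved weeds germinating spontaneously. Test compounds applied as wettable powder to soil under flooded water. Herbicidal effect and rice phytotoxicity scored 0–5 at 25 days after application.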

[5] = system: common purslane (Portulaca oleracea); assay: Pre-emergence application, herbicidal effect on common purslane (Table 1); set-up: key: 0: not damaged; 5: completely killed; conditions: 20 days after application, score 0-5
Summary of the method: as §1

[6] = system: carmine mite (Tetranychus telavius); assay: Lethal effect on carmine mite, leaf dipping (Table 3); conditions: foliar, 48 h
Procedure: A large number of carmine mite adult were made parasitic on leaves of potted kidney beans at a 2-leaves stage which had elapsed 10 days after sowing. The leaves of kidney bean on which carmine mites had been made parasitic were dipped for 1 minute in each aqueous solution of the present compounds of wettable powder type. Water was given to the leaves not to kill them, and after 48 hours the death and alive were observed microscopically to calculate the mortality. Values of LC50 were obtained from the mortality.

[7] = system: tobacco cut worm (Spodoptera litura); assay: Field test, tobacco cut worm on cabbage (Table 8); conditions: 3% dust, 5 kg./10 a., after 7 days, on 20 cabbages
From the text: (§3) A 3% dust of each compound of the present invention was applied, in a proportion of 5 kg./10 a., to the field of cabbage where a large number of tobacco cut worm and diamond-back moth were generated, After 7 days, 20 cabbages were pulled out and the number of insects thereon were checked.

[8] = system: broad-leaved weeds, e.g., monochoria, false pimpernel and toothcup; assay: Water application, herbicidal effect on broad-leaved weeds (Table 2); set-up: key: 0: not damaged; 5: completely killed; conditions: 25 days, score 0-5
Summary of the method: as §2

[9] = system: diamond-back moth (Plutella maculipennis); assay: Field test, diamond-back moth on cabbage (Table 8); conditions: 3% dust, 5 kg./10 a., after 7 days, on 20 cabbages
From the text: as §3

[10] = system: barnyard grass (Echinochloa crus-galli); assay: Water application, herbicidal effect on barnyard grass (Table 2); set-up: key: 0: not damaged; 5: completely killed; conditions: 25 days, score 0-5
Summary of the method: as §2

[11] = system: common lambsquarter (Chenopodium album); assay: Pre-emergence application, herbicidal effect on common lambsquarter (Table 1); set-up: key: 0: not damaged; 5: completely killed; conditions: 20 days after application, score 0-5
Summary of the method: as §1

[12] = system: barnyard grass (Echinochloa crus-galli); assay: Pre-emergence application, herbicidal effect on barnyard grass (Table 1); set-up: key: 0: not damaged; 5: completely killed; conditions: 20 days after application, score 0-5
Summary of the method: as §1

[13] = system: redroot pigweed (Amaranthus retroflexus); assay: Pre-emergence application, herbicidal effect on redroot pigweed (Table 1); set-up: key: 0: not damaged; 5: completely killed; conditions: 20 days after application, score 0-5
Summary of the method: as §1

[14] = system: tobacco cut worm (Spondoptera litura); assay: Lethal effect on tobacco cut worm (Table 5); conditions: tobacco cutworm, larvae on chinese cabbage leaves, 48 h
Procedure: The present compounds of an emulsifiable concentrate type were applied to leaves of chinese cabbage in the form of an 1000 fold dilute solution. After air-drying, third to fourth instar larvae of tobacco cut worm were released and after 48 hours the death and alive were observed.

[15] = system: carmine mite (Tetranychus telarius); assay: Lethal effect on carmine mite, degree of damage on kidney beans (Table 4); set-up: key: -: damage is hardly increased.; +: damage is slightly increased.; ++: damage is fairly increased.; +++: damage is heavily increased; conditions: 25% wettable powder, 200 fold dilute solution, another week after application
From the text: About 50 carmine mite adults were made parasitic on leaves of potted kidney beans at a 2-leaves stage which had elapsed 10 days after swing. After a week, the present compounds of a 25% wettable powder type were each applied in the form of a 200 fold dilute solution.

[16] = system: rice stem borer (Chilo suppressalis); assay: Lethal effect on rice stem borer (Table 6); conditions: 50 % emulsifiable concentrate, 1000 fold dilute solution, 4 days after application
From the text: Eggs just before hatch of the rice stem borer were applied in a ratio of 100/pot near the root of rice plants grown up into the tillering stage in an […] Wagner's pot. After eggs were hatched and the larvae entered into stems of rice plants, an 1000 fold dilute solution of each 50 % emulsifiable concentrates of the present compounds was applied by means of a turn table.

Row | SMILES | Herbicidal effect, large crabgrass ([1]; 10 g./a.) | Herbicidal effect, large crabgrass ([1]; 20 g./a.) | Herbicidal effect, large crabgrass ([1]; 40 g./a.) | Herbicidal effect, radish ([2]; 10 g./a.) | Herbicidal effect, radish ([2]; 20 g./a.) | Herbicidal effect, radish ([2]; 40 g./a.) | Mortality [3] | Phytotoxicity on rice ([4]; 10 g/a) | Phytotoxicity on rice ([4]; 20 g/a) | Phytotoxicity on rice ([4]; 40 g/a) | Herbicidal effect, common purslane ([5]; 10 g./a.) | Herbicidal effect, common purslane ([5]; 20 g./a.) | Herbicidal effect, common purslane ([5]; 40 g./a.) | Herbicidal effects, broad-leaved weeds ([8]; 10 g/a) | Herbicidal effects, broad-leaved weeds ([8]; 20 g/a) | Herbicidal effects, broad-leaved weeds ([8]; 40 g/a) | Herbicidal effects, barnyard grass ([10]; 10 g/a) | Herbicidal effects, barnyard grass ([10]; 20 g/a) | Herbicidal effects, barnyard grass ([10]; 40 g/a) | Herbicidal effect, common lambsquarter ([11]; 10 g./a.) | further results
1 | CCCSP(=O)(OCC)SCC(=O)N1CCCCC1C (centres unmarked) [Compound 2, O-ethyl-S-n-propyl-S(2-methylpiperidinocarbomoylmethyl)phosphorodithiolate] | 5 | 5 | 5 | 0 | 0 | 1 | 100% | 0 | 1 | 1 | 5 | 5 | 5 | 5 | 5 | 5 | 5 | 5 | 5 | 5 | LC50 [6]: 4.6 µg/mL (≈ 13.6 µM); Number of insects, tobacco cut worm [7]: 0; Number of insects, diamond-back moth [9]: 8; Herbicidal effect, common lambsquarter ([11]; 20 g./a.): 5; Herbicidal effect, common lambsquarter ([11]; 40 g./a.): 5; Herbicidal effect, barnyard grass ([12]; 10 g./a.): 5; Herbicidal effect, barnyard grass ([12]; 20 g./a.): 5; Herbicidal effect, barnyard grass ([12]; 40 g./a.): 5; Herbicidal effect, redroot pigweed ([13]; 10 g./a.): 5; Herbicidal effect, redroot pigweed ([13]; 20 g./a.): 5; Herbicidal effect, redroot pigweed ([13]; 40 g./a.): 5; Mortality [14]: 100%
2 | CCOP(=O)(SCC(=O)N1CCCCC1C)SCc1ccc(Cl)cc1 (stereo not drawn) [Compound 49, O-ethyl-S-(4-chlorobenzyl)-S-(2-methylpiperidinocarbamoylmethyl)phosphorodithiolate] | 5 | 5 | 5 | 0 | 0 | 0 | 100% | 0 | 0 | 1 | 3 | 4 | 5 | 5 | 5 | 5 | 5 | 5 | 5 | 4 | Degree of damage [15]: -; Herbicidal effect, common lambsquarter ([11]; 20 g./a.): 4; Herbicidal effect, common lambsquarter ([11]; 40 g./a.): 5; Herbicidal effect, barnyard grass ([12]; 10 g./a.): 5; Herbicidal effect, barnyard grass ([12]; 20 g./a.): 5; Herbicidal effect, barnyard grass ([12]; 40 g./a.): 5; Herbicidal effect, redroot pigweed ([13]; 10 g./a.): 3; Herbicidal effect, redroot pigweed ([13]; 20 g./a.): 4; Herbicidal effect, redroot pigweed ([13]; 40 g./a.): 5; Mortality [14]: 75.0%
3 | CCOP(=O)(SCC(=O)N1CCCCC1C)SCc1ccc(CC)cc1 (centres unmarked) [Compound 53] | 5 | 5 | 5 | 0 | 0 | 0 | 83.6% | 0 | 0 | 0 | 3 | 3 | 5 | 5 | 5 | 5 | 5 | 5 | 5 | 3 | Degree of damage [15]: -~+; Herbicidal effect, common lambsquarter ([11]; 20 g./a.): 3; Herbicidal effect, common lambsquarter ([11]; 40 g./a.): 4; Herbicidal effect, barnyard grass ([12]; 10 g./a.): 4; Herbicidal effect, barnyard grass ([12]; 20 g./a.): 5; Herbicidal effect, barnyard grass ([12]; 40 g./a.): 5; Herbicidal effect, redroot pigweed ([13]; 10 g./a.): 3; Herbicidal effect, redroot pigweed ([13]; 20 g./a.): 4; Herbicidal effect, redroot pigweed ([13]; 40 g./a.): 5
4 | CCOP(=O)(SCC(=O)N1CCCCC1C)SCc1ccc(Cl)c(Cl)c1 (centres unmarked) [Compound 61] |  |  |  |  |  |  |  |  |  |  |  |  |  |  |  |  |  |  |  |  | Degree of damage [15]: -
5 | CCOP(=O)(SCC(=O)N1CCCCC1C)SC(C)C (centres unmarked) [Compound 3] | 5 | 5 | 5 | 0 | 0 | 0 | 100% | 0 | 0 | 0 | 5 | 5 | 5 | 5 | 5 | 5 | 5 | 5 | 5 | 5 | LC50 [6]: 18.5 µg/mL (≈ 54.5 µM); Number of insects, tobacco cut worm [7]: 1; Number of insects, diamond-back moth [9]: 12; Herbicidal effect, common lambsquarter ([11]; 20 g./a.): 5; Herbicidal effect, common lambsquarter ([11]; 40 g./a.): 5; Herbicidal effect, barnyard grass ([12]; 10 g./a.): 5; Herbicidal effect, barnyard grass ([12]; 20 g./a.): 5; Herbicidal effect, barnyard grass ([12]; 40 g./a.): 5; Herbicidal effect, redroot pigweed ([13]; 10 g./a.): 4; Herbicidal effect, redroot pigweed ([13]; 20 g./a.): 5; Herbicidal effect, redroot pigweed ([13]; 40 g./a.): 5; Mortality [14]: 83.3%
6 | CCOP(=O)(SCC(=O)N1CCCCC1C)SC(C)CC (centres unmarked) [Compound 5] | 5 | 5 | 5 | 0 | 0 | 0 | 100% | 0 | 0 | 0 | 5 | 5 | 5 | 5 | 5 | 5 | 5 | 5 | 5 | 5 | LC50 [6]: 7.9 µg/mL (≈ 22.3 µM); Herbicidal effect, common lambsquarter ([11]; 20 g./a.): 5; Herbicidal effect, common lambsquarter ([11]; 40 g./a.): 5; Herbicidal effect, barnyard grass ([12]; 10 g./a.): 5; Herbicidal effect, barnyard grass ([12]; 20 g./a.): 5; Herbicidal effect, barnyard grass ([12]; 40 g./a.): 5; Herbicidal effect, redroot pigweed ([13]; 10 g./a.): 5; Herbicidal effect, redroot pigweed ([13]; 20 g./a.): 5; Herbicidal effect, redroot pigweed ([13]; 40 g./a.): 5; Mortality [16]: 88.9%; Mortality [14]: 70.0%
7 | CCOP(=O)(SCCc1ccc(Cl)cc1)SCC(=O)N1CCCCC1C (centres unmarked) [Compound 60] |  |  |  |  |  |  |  |  |  |  |  |  |  |  |  |  |  |  |  |  | Degree of damage [15]: -
8 | COP(=O)(OC)C(O)C(Cl)(Cl)Cl (centres unmarked) [Bipterex, reference compound] |  |  |  |  |  |  |  |  |  |  |  |  |  |  |  |  |  |  |  |  | Number of insects, tobacco cut worm [7]: 19; Number of insects, diamond-back moth [9]: 49
